How the values were obtained:
Assay in all cases: cells
KYSE-270 = assay type: functional, cell-based; details: Homo sapiens;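 note: cell growth inhibition measured with a viability assay in the human KYSE-270 line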
Description: SANGER: Inhibition of human KYSE-270 cell growth in a cell viability assay.

SW626 = assay type: functional, cell-based; details: Homo sapiens;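 note: growth inhibition of SW626 cells, measured with a cell viability assay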
Description: SANGER: Inhibition of human SW626 cell growth in a cell viability assay.

HPAF-II = assay type: functional, cell-based; details: Homo sapiens;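 note: growth inhibition of HPAF-II cells, read out with a cell viability assay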
Description: SANGER: Inhibition of human HPAF-II cell growth in a cell viability assay.

KOSC-2 = assay type: functional, cell-based; details: Homo sapiens;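 note: growth inhibition of KOSC-2 cells, read out by a cell viability assay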
Description: SANGER: Inhibition of human KOSC-2 cell growth in a cell viability assay.

KYSE-510 = assay type: functional, cell-based; details: Homo sapiens;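 note: cell viability readout used to measure how strongly growth of the cell line is suppressed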
Description: SANGER: Inhibition of human KYSE-510 cell growth in a cell viability assay.

DMS-273 = assay type: functional, cell-based; details: Homo sapiens
Description: SANGER: Inhibition of human DMS-273 cell growth in a cell viability assay.

OE33 = assay type: functional, cell-based; details: Homo sapiens;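 note: growth inhibition of human OE33 cells, measured by a cell viability assay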
Description: SANGER: Inhibition of human OE33 cell growth in a cell viability assay.

BHT-101 = assay type: functional, cell-based; details: Homo sapiens
Description: SANGER: Inhibition of human BHT-101 cell growth in a cell viability assay.

PC-14 = assay type: functional, cell-based; details: Homo sapiens;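 note: cell viability assay measuring inhibition of PC-14 cell growth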
Description: SANGER: Inhibition of human PC-14 cell growth in a cell viability assay.

FTC-133 = assay type: functional, cell-based; details: Homo sapiens
SK-MEL-30 = assay type: functional, cell-based; details: Homo sapiens;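 note: growth inhibition of SK-MEL-30 cells, determined with a cell viability assay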
Description: SANGER: Inhibition of human SK-MEL-30 cell growth in a cell viability assay.

DU-145 = assay type: functional, cell-based; details: Homo sapiens
Description: SANGER: Inhibition of human DU-145 cell growth in a cell viability assay.

AU565 = assay type: functional, cell-based; details: Homo sapiens;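 note: cell viability assay measuring growth inhibition of human AU565 cells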
Description: SANGER: Inhibition of human AU565 cell growth in a cell viability assay.

LK-2 = assay type: functional, cell-based; details: Homo sapiens;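 note: growth inhibition of LK-2 cells, read out with a viability assay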
Description: SANGER: Inhibition of human LK-2 cell growth in a cell viability assay.

EFM-19 = assay type: functional, cell-based; details: Homo sapiens;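 note: growth inhibition of human EFM-19 cells, measured in a cell viability assay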
Description: SANGER: Inhibition of human EFM-19 cell growth in a cell viability assay.

SK-MEL-28 = assay type: functional, cell-based; details: Homo sapiens;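 note: growth inhibition of human SK-MEL-28 cells, read out with a cell viability assay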
Description: SANGER: Inhibition of human SK-MEL-28 cell growth in a cell viability assay.

HGC-27 = assay type: functional, cell-based; details: Homo sapiens;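 note: growth inhibition of human HGC-27 cells, read out in a cell viability assay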
Description: SANGER: Inhibition of human HGC-27 cell growth in a cell viability assay.

KYSE-180 = assay type: functional, cell-based; details: Homo sapiens;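 note: growth inhibition of KYSE-180 cells, read out with a cell viability assay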
Description: SANGER: Inhibition of human KYSE-180 cell growth in a cell viability assay.

UMC-11 = assay type: functional, cell-based; details: Homo sapiens;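 note: growth inhibition of UMC-11 cells, read out with a cell viability assay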
Description: SANGER: Inhibition of human UMC-11 cell growth in a cell viability assay.

MDA-MB-415 = assay type: functional, cell-based; details: Homo sapiens
NCI-H727 = assay type: functional, cell-based; details: Homo sapiens;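 note: growth inhibition of human NCI-H727 cells, read out with a cell viability assay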
Description: SANGER: Inhibition of human NCI-H727 cell growth in a cell viability assay.

J82 = assay type: functional, cell-based; details: Homo sapiens;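 note: growth inhibition of J82 cells, read out with a cell viability assay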
Description: SANGER: Inhibition of human J82 cell growth in a cell viability assay.

NUGC-3 = assay type: functional, cell-based; details: Homo sapiens;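 note: growth inhibition of human NUGC-3 cells, read out with a cell viability assay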
Description: SANGER: Inhibition of human NUGC-3 cell growth in a cell viability assay.

SK-LU-1 = assay type: functional, cell-based; details: Homo sapiens;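 note: cell viability assay measuring growth inhibition of human SK-LU-1 cells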
Description: SANGER: Inhibition of human SK-LU-1 cell growth in a cell viability assay.

NCI-H510A = assay type: functional, cell-based, Homo sapiens; details: Homo sapiens, NCI-H510A;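 note: growth inhibition of NCI-H510A cells, read out with a cell viability assay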
Description: SANGER: Inhibition of human NCI-H510A cell growth in a cell viability assay.

CAL-33 = assay type: functional, cell-based; details: Homo sapiens;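 note: growth inhibition of CAL-33 cells, read out with a cell viability assay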
Description: SANGER: Inhibition of human CAL-33 cell growth in a cell viability assay.

RVH-421 = assay type: functional, cell-based; details: Homo sapiens
Description: SANGER: Inhibition of human RVH-421 cell growth in a cell viability assay.

HO-1-N-1 = assay type: functional, cell-based; details: Homo sapiens;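 note: growth inhibition of human HO-1-N-1 cells, read out with a cell viability assay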
Description: SANGER: Inhibition of human HO-1-N-1 cell growth in a cell viability assay.

KU-19-19 = assay type: functional, cell-based; details: Homo sapiens
Description: SANGER: Inhibition of human KU-19-19 cell growth in a cell viability assay.

MG-63 = assay type: functional, cell-based; details: Homo sapiens;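 note: growth inhibition of human MG-63 cells, read out with a cell viability assay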
Description: SANGER: Inhibition of human MG-63 cell growth in a cell viability assay.

KYSE-140 = assay type: functional, cell-based; details: Homo sapiens;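 note: cell viability assay measuring growth inhibition in human KYSE-140 cells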
Description: SANGER: Inhibition of human KYSE-140 cell growth in a cell viability assay.

SK-OV-3 = assay type: functional, cell-based; details: Homo sapiens;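 note: growth inhibition of SK-OV-3 human cells, read out with a cell viability assay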
Description: SANGER: Inhibition of human SK-OV-3 cell growth in a cell viability assay.

HC-1 = assay type: functional, cell-based, Homo sapiens; details: Homo sapiens, HC-1;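 note: growth inhibition of HC-1 cells measured by a cell viability assay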
Description: SANGER: Inhibition of human HC-1 cell growth in a cell viability assay.

BCPAP = assay type: functional, cell-based; details: Homo sapiens;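 note: growth inhibition of BCPAP cells, read out in a cell viability assay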
Description: SANGER: Inhibition of human BCPAP cell growth in a cell viability assay.

HTC-C3 = assay type: functional, cell-based; details: Homo sapiens;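 note: inhibition of cell growth, read out with a cell viability assay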
Description: SANGER: Inhibition of human HTC-C3 cell growth in a cell viability assay.

HuP-T4 = assay type: functional, cell-based; details: Homo sapiens;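 note: cell viability assay measuring how much HuP-T4 cell growth is inhibited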
Description: SANGER: Inhibition of human HuP-T4 cell growth in a cell viability assay.

PC-3 = assay type: functional, cell-based; details: Homo sapiens;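 note: cell viability assay measuring growth inhibition of PC-3 cells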
Description: SANGER: Inhibition of human PC-3 cell growth in a cell viability assay.

NB17 = assay type: functional, cell-based, Homo sapiens; details: Homo sapiens, NB17;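 note: growth inhibition of NB17 cells, read out with a cell viability assay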
Description: SANGER: Inhibition of human NB17 cell growth in a cell viability assay.

MDA-MB-175-VII = assay type: functional, cell-based; details: Homo sapiens
EC-GI-10 = assay type: functional, cell-based, Homo sapiens; details: Homo sapiens, EC-GI-10
Description: SANGER: Inhibition of human EC-GI-10 cell growth in a cell viability assay.

KMOE-2 = assay type: functional, cell-based, Homo sapiens; details: Homo sapiens, KMOE-2;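 note: growth inhibition of human KMOE-2 cells, read out with a cell viability assay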
Description: SANGER: Inhibition of human KMOE-2 cell growth in a cell viability assay.

HOS = assay type: functional, cell-based; details: Homo sapiens;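 note: growth inhibition of human HOS cells, read out with a cell viability assay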
Description: SANGER: Inhibition of human HOS cell growth in a cell viability assay.

HuCCT-1 = assay type: functional, cell-based, HuCCT1; details: Homo sapiens;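 note: growth inhibition of HuCCT-1 cells, read out by a cell viability assay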
Description: SANGER: Inhibition of human HuCCT1 cell growth in a cell viability assay.

HCC 2998 = assay type: functional, cell-based; details: Homo sapiens;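 note: growth inhibition of human HCC2998 cells, measured with a cell viability read-out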
Description: SANGER: Inhibition of human HCC2998 cell growth in a cell viability assay.

NCI-H1793 = assay type: functional, cell-based; details: Homo sapiens;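 note: cell growth inhibition, read out by a cell viability assay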
Description: SANGER: Inhibition of human NCI-H1793 cell growth in a cell viability assay.

OVCAR-8 = assay type: functional, cell-based; details: Homo sapiens;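 note: growth inhibition of human OVCAR-8 cells, read out by a cell viability assay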
Description: SANGER: Inhibition of human OVCAR-8 cell growth in a cell viability assay.

A-375 = assay type: functional, cell-based; details: Homo sapiens;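 note: growth inhibition of A375 cells, read out with a cell viability assay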
Description: SANGER: Inhibition of human A375 cell growth in a cell viability assay.

NC(=O)Nc1cc(-c2cccc(F)c2)sc1C(=O)N[C@H]1CCCNC1 [AZD-7762]
IC50 (KYSE-270): 226 nM
IC50 (SW626): 506 nM
IC50 (HPAF-II): 970 nM
IC50 (KOSC-2): 247 nM
IC50 (KYSE-510): 1580 nM
IC50 (DMS-273): 755 nM
IC50 (OE33): 391 nM
IC50 (BHT-101): 1150 nM
IC50 (PC-14): 417 nM
IC50 (FTC-133): 303 nM
IC50 (SK-MEL-30): > 2000 nM
IC50 (DU-145): > 2000 nM
IC50 (AU565): 824 nM
IC50 (LK-2): 1460 nM
IC50 (EFM-19): 1480 nM
IC50 (SK-MEL-28): > 2000 nM
IC50 (HGC-27): 491 nM
IC50 (KYSE-180): 402 nM
IC50 (UMC-11): 1770 nM
IC50 (MDA-MB-415): > 2000 nM
IC50 (NCI-H727): 698 nM
IC50 (J82): 805 nM
IC50 (NUGC-3): > 2000 nM
IC50 (SK-LU-1): 84.2 nM
IC50 (NCI-H510A): 246 nM
IC50 (CAL-33): 984 nM
IC50 (RVH-421): 1190 nM
IC50 (HO-1-N-1): 1140 nM
IC50 (KU-19-19): > 2000 nM
IC50 (MG-63): > 2000 nM
IC50 (KYSE-140): 130 nM
IC50 (SK-OV-3): > 2000 nM
IC50 (HC-1): 521 nM
IC50 (BCPAP): 1890 nM
IC50 (HTC-C3): 835 nM
IC50 (HuP-T4): 469 nM
IC50 (PC-3): > 2000 nM
IC50 (NB17): 158 nM
IC50 (MDA-MB-175-VII): > 2000 nM
IC50 (EC-GI-10): 1780 nM
IC50 (KMOE-2): 1110 nM
IC50 (HOS): 880 nM
IC50 (HuCCT-1): 708 nM
IC50 (HCC 2998): 317 nM
IC50 (NCI-H1793): 1610 nM
IC50 (OVCAR-8): 356 nM
IC50 (A-375): 499 nM

Cc1ccc(-n2nc(C(C)(C)C)cc2NC(=O)Nc2ccc(OCCN3CCOCC3)c3ccccc23)cc1 [DORAMAPIMOD]
IC50 (KYSE-270): > 10000 nM
IC50 (SW626): > 10000 nM
IC50 (HPAF-II): > 10000 nM
IC50 (KOSC-2): > 10000 nM
IC50 (KYSE-510): > 10000 nM
IC50 (DMS-273): > 10000 nM
IC50 (OE33): > 10000 nM
IC50 (BHT-101): > 10000 nM
IC50 (PC-14): > 10000 nM
IC50 (FTC-133): > 10000 nM
IC50 (SK-MEL-30): > 10000 nM
IC50 (DU-145): 3940 nM
IC50 (AU565): > 10000 nM
IC50 (LK-2): > 10000 nM
IC50 (EFM-19): > 10000 nM
IC50 (SK-MEL-28): > 10000 nM
IC50 (HGC-27): > 10000 nM
IC50 (KYSE-180): > 10000 nM
IC50 (UMC-11): > 10000 nM
IC50 (MDA-MB-415): > 10000 nM
IC50 (NCI-H727): > 10000 nM
IC50 (J82): > 10000 nM
IC50 (NUGC-3): > 10000 nM
IC50 (SK-LU-1): > 10000 nM
IC50 (CAL-33): > 10000 nM
IC50 (RVH-421): > 10000 nM
IC50 (HO-1-N-1): > 10000 nM
IC50 (KU-19-19): > 10000 nM
IC50 (MG-63): > 10000 nM
IC50 (KYSE-140): > 10000 nM
IC50 (SK-OV-3): > 10000 nM
IC50 (BCPAP): > 10000 nM
IC50 (HTC-C3): > 10000 nM
IC50 (HuP-T4): > 10000 nM
IC50 (PC-3): > 10000 nM
IC50 (NB17): > 10000 nM
IC50 (MDA-MB-175-VII): > 10000 nM
IC50 (HOS): > 10000 nM
IC50 (HuCCT-1): > 10000 nM
IC50 (HCC 2998): > 10000 nM
IC50 (NCI-H1793): > 10000 nM
IC50 (OVCAR-8): > 10000 nM
IC50 (A-375): > 10000 nM

CC1(C)CCC(c2ccc(Cl)cc2)=C(CN2CCN(c3ccc(C(=O)NS(=O)(=O)c4ccc(N[C@H](CCN5CCOCC5)CSc5ccccc5)c(S(=O)(=O)C(F)(F)F)c4)cc3)CC2)C1 [NAVITOCLAX]
IC50 (KYSE-270): > 2000 nM
IC50 (SW626): > 2000 nM
IC50 (HPAF-II): 926 nM
IC50 (KOSC-2): > 2000 nM
IC50 (KYSE-510): > 2000 nM
IC50 (DMS-273): > 2000 nM
IC50 (OE33): > 2000 nM
IC50 (BHT-101): > 2000 nM
IC50 (PC-14): > 2000 nM
IC50 (FTC-133): > 2000 nM
IC50 (SK-MEL-30): > 2000 nM
IC50 (DU-145): 899 nM
IC50 (AU565): > 2000 nM
IC50 (LK-2): > 2000 nM
IC50 (EFM-19): > 2000 nM
IC50 (SK-MEL-28): > 2000 nM
IC50 (HGC-27): > 2000 nM
IC50 (KYSE-180): > 2000 nM
IC50 (UMC-11): > 2000 nM
IC50 (MDA-MB-415): 1390 nM
IC50 (NCI-H727): > 2000 nM
IC50 (J82): > 2000 nM
IC50 (NUGC-3): > 2000 nM
IC50 (SK-LU-1): > 2000 nM
IC50 (CAL-33): > 2000 nM
IC50 (RVH-421): > 2000 nM
IC50 (HO-1-N-1): > 2000 nM
IC50 (KU-19-19): > 2000 nM
IC50 (MG-63): > 2000 nM
IC50 (KYSE-140): > 2000 nM
IC50 (SK-OV-3): > 2000 nM
IC50 (BCPAP): > 2000 nM
IC50 (HTC-C3): > 2000 nM
IC50 (HuP-T4): > 2000 nM
IC50 (PC-3): > 2000 nM
IC50 (NB17): 71.2 nM
IC50 (MDA-MB-175-VII): > 2000 nM
IC50 (HOS): > 2000 nM
IC50 (HuCCT-1): > 2000 nM
IC50 (HCC 2998): 1070 nM
IC50 (NCI-H1793): > 2000 nM
IC50 (OVCAR-8): > 2000 nM
IC50 (A-375): > 2000 nM

CS(=O)(=O)N1CCN(Cc2cc3nc(-c4cccc5[nH]ncc45)nc(N4CCOCC4)c3s2)CC1 [PICTILISIB]
IC50 (KYSE-270): 1300 nM
IC50 (SW626): > 4000 nM
IC50 (HPAF-II): 3100 nM
IC50 (KOSC-2): > 4000 nM
IC50 (KYSE-510): > 4000 nM
IC50 (DMS-273): 2860 nM
IC50 (OE33): > 4000 nM
IC50 (BHT-101): 545 nM
IC50 (PC-14): 3730 nM
IC50 (FTC-133): > 4000 nM
IC50 (SK-MEL-30): > 4000 nM
IC50 (DU-145): > 4000 nM
IC50 (AU565): 1320 nM
IC50 (LK-2): > 4000 nM
IC50 (EFM-19): 1620 nM
IC50 (SK-MEL-28): 1560 nM
IC50 (HGC-27): 213 nM
IC50 (KYSE-180): > 4000 nM
IC50 (UMC-11): > 4000 nM
IC50 (MDA-MB-415): 1490 nM
IC50 (NCI-H727): > 4000 nM
IC50 (J82): > 4000 nM
IC50 (NUGC-3): > 4000 nM
IC50 (SK-LU-1): 2450 nM
IC50 (CAL-33): > 4000 nM
IC50 (RVH-421): > 4000 nM
IC50 (HO-1-N-1): 659 nM
IC50 (KU-19-19): 516 nM
IC50 (MG-63): 541 nM
IC50 (KYSE-140): > 4000 nM
IC50 (SK-OV-3): > 4000 nM
IC50 (BCPAP): > 4000 nM
IC50 (HTC-C3): 3290 nM
IC50 (HuP-T4): 1610 nM
IC50 (PC-3): > 4000 nM
IC50 (NB17): > 4000 nM
IC50 (MDA-MB-175-VII): 353 nM
IC50 (HOS): 1980 nM
IC50 (HuCCT-1): > 4000 nM
IC50 (HCC 2998): > 4000 nM
IC50 (NCI-H1793): > 4000 nM
IC50 (OVCAR-8): > 4000 nM
IC50 (A-375): > 4000 nM

Source: ChEMBL document CHEMBL1201861, “Genomics of Drug Sensitity in Cancer screening data, Wellcome Trust Sanger Institute”
